Results on eleven compounds are retold here after patent publication US4666936A, “Amide derivatives of 2-(p-aminobenzyl)-butyric acid and esters thereof having hypolipidemizing activity” (Medosan Industrie Biochimiche Riunite S.p.A., priority 1984, dated 1987).

The structures appear in SMILES notation. “Also recorded” adds a separate entry of the source.

For data set [1], the system named is cholesterol and triglycerides. The following applies: literature, prior art; cited from earlier work.
Data set [2] is described as follows: Acute toxicity (DL50) in mouse, oral route. The following applies: in vivo, oral (os), 15 days observation. As to the method:
DL50 was evaluated after administration of the compounds (2), (3), (4), (5) and (6) alone in male albine Swiss mice weighing 27±3 g, using the oral route. The animals were held under observation by checking the mortality and pain signs, if any, for 15 days.
The DL50 values (mg/kg) are referred in table III.

Data set [3] has as its system hematic levels of triglycerides and total cholesterol. Kind of data set: Hypolipidemizing activity in rat made hyperlipidemic by Triton WR-1339. In kind it is in vivo, rat (male Wistar). The following applies: 500 mg/kg per os; for Total cholesterol, % mg / Triglycerides, % mg: serum after 18 hours fasting; for Total cholesterol, % variation / Triglycerides, % variation: vs carrier. The protocol:
(§1) The preparations administered "in vivo" by oral route, comprise a 0.5% suspension of carboxymethylcellulose in a neutral pH normal physiological saline for the compounds (3), (4) and (5), while for the compounds (2) and (6) the preparation comprises a solution in NaOH (0.1N) at pH 7-7.5. The hypolipidemizing activity of the substances under test was evaluated as the ability to decrease the hematic levels of triglycerides and total cholesterol in animals made hyperlipidemic by administration of Triton (antihyperlipidemic agents, J. N. Moss, Screening Methods in Pharmacology,Ed. Robert A. Turner and P. Hebborn, volume II, Academic Press, pages 121-143). The test was carried out on two animal species: rat and mouse. Male Wistar rats and Swiss mice were used, held at a normal diet, the former weighing 200-260 g, the latter weighing about 26-30 g. The compounds (2), (3), (4), (5) and (6) and the Bezafibrate and Clofibrate of control were administered per os at a dose of 500 mg/kg, simultaneously with a 10% solution in normal saline of Triton WR-1339 endoperitoneally at a rate of 2 ml/kg body weight. After treatment, the animals were divided into lots of eight, and held fasting for 18 hours and then sacrificed. The hematic levels of triglycerides total cholesterol are measured on the serum by enzymatic methods (Test-Combination Triglycerides, Boehring Mannheim GmbH) and colorimetric methods (Test-Combination Cholesterol, Boehring Mannheim GmbH). The results on the hypolipidemizing activity of the compounds under test in rat and mouse are referred in tables I and II.

The test system is the same in data set [4]. Kind of data set: Hypolipidemizing activity in mouse made hyperlipidemic by Triton WR-1339. The format is in vivo, mouse (Swiss). The following applies: 500 mg/kg per os; for Total cholesterol, % mg / Triglycerides, % mg: serum after 18 hours fasting; for Total cholesterol, % variation / Triglycerides, % variation: vs carrier. As to the method: as §1
Data set [5] concerns hematic levels of cholesterol and triglycerides. In words: Pharmacological tests of hypolipidemizing activity, overall statements. In kind it is in vivo, rat and mouse. The following applies: compared with Bezafibrate and Clofibrate. As to the method:
as §1

For data set [6] the following is noted: mouse, os; value as reported in literature: G. Metz et al, Arzneimittel Forschung, 27: 1173; 1977; cited from earlier work.
Data set [7] relates to hepatic enzymes involved in the biosynthesis de novo of the triglycerides. The following applies: literature, appears to occur possibly; cited from earlier work.
Data set [8] has as its system cholesterol. The following applies: literature, appears to occur possibly; cited from earlier work.

As for `Cc1ccc(C)n1-c1ccc(CC(=O)Nc2nccs2)cc1`, the “hypolipidemizing activity (in words)” value in data set [1] was “hypolipidemizing activity lower than that of Bezafibrate”.
In the case of `CCOC(=O)C(CC)Cc1ccc(N2C(=O)c3ccccc3C2=O)cc1` (stereo not shown) [Compound (3), 2-(p-phthalimidobenzyl)-butyric acid ethyl ester], the LD50 (usually the dose at which mortality reaches 50%) in data set [2] was above 1700 mg/kg. In data set [3], the “Total cholesterol, % mg” value is on record as 189 % mg; the “Triglycerides, % mg” value is listed as 390 % mg; the “Total cholesterol, % variation” value is given as -30%; the “Triglycerides, % variation” value was -25%. Also, in data set [4], the “Total cholesterol, % mg” value came out at 140 % mg; the “Triglycerides, % mg” value is listed as 64 % mg; the “Total cholesterol, % variation” value is reported as -33%; the “Triglycerides, % variation” value is -56%. The “hypocholesterolemizing and hypolipidemizing activity (in words)” value in data set [5] was “interesting ability to decrease the hematic levels of cholesterol and triglycerides; also recorded: particularly high hypocholesterolemizing and hypolipidemizing activity”.
With `CCC(Cc1ccc(N2C(=O)c3ccccc3C2=O)cc1)C(=O)O` (stereo not shown) [Compound (2), 2-(p-phthalimidobenzyl)-butyric acid], in data set [2], the LD50 was above 2000 mg/kg. In data set [3], the “Total cholesterol, % mg” value was 176 % mg; the “Triglycerides, % mg” value is listed as 360 % mg; the “Total cholesterol, % variation” value was -35%; the “Triglycerides, % variation” value is -31%. Further, in data set [4], the “Total cholesterol, % mg” value is 130 % mg; the “Triglycerides, % mg” value is 60 % mg; the “Total cholesterol, % variation” value is given as -38%; the “Triglycerides, % variation” value is given as -59%. Also, in data set [5], the “hypocholesterolemizing and hypolipidemizing activity (in words)” value was “interesting ability to decrease the hematic levels of cholesterol and triglycerides; also recorded: particularly high hypocholesterolemizing and hypolipidemizing activity”.
On to `CCOC(=O)C(CC)Cc1ccc(NC(=O)c2ccc(Cl)cc2)cc1` (stereo not shown) [Compound (4), 2-[4-(p-chlorobenzamido)-benzyl]-butyric acid ethyl ester], for which the LD50 in data set [2] was above 2000 mg/kg. In addition, in data set [3], the “Total cholesterol, % mg” value is given as 200 % mg; the “Triglycerides, % mg” value is 400 % mg; the “Total cholesterol, % variation” value is -26%; the “Triglycerides, % variation” value is reported as -23%. Also, in data set [4], the “Total cholesterol, % mg” value came out at 129 % mg; the “Triglycerides, % mg” value was 90 % mg; the “Total cholesterol, % variation” value was -38%; the “Triglycerides, % variation” value is reported as -39%. The “hypocholesterolemizing and hypolipidemizing activity (in words)” value in data set [5] was “interesting ability to decrease the hematic levels of cholesterol and triglycerides; also recorded: particularly high hypocholesterolemizing and hypolipidemizing activity”.
Take `O=C1NC(=O)c2ccccc21` [phthalimide]: the “hypolipidemizing activity (in words)” value in data set [1] was “hypocholesterolemizing activity”.
Consider `CCOC(=O)C(C)(C)Oc1ccc(Cl)cc1` [Clofibrate, reference compound], for which, in data set [3], the “Total cholesterol, % mg” value is 218 % mg; the “Triglycerides, % mg” value is listed as 420 % mg; the “Total cholesterol, % variation” value is reported as -19%; the “Triglycerides, % variation” value is on record as -19%. Further, in data set [1], the “hypolipidemizing activity (in words)” value was “ability to decrease the hematic levels of cholesterol and triglycerides”. In addition, in data set [4], the “Total cholesterol, % mg” value is 152 % mg; the “Triglycerides, % mg” value was found to be 115 % mg; the “Total cholesterol, % variation” value was -27%; the “Triglycerides, % variation” value is given as -22%. In addition, the DL50 in data set [6] is reported as 1280 mg/kg.
In the case of `CCOC(=O)C(CC)Cc1ccc(NC(=O)Cc2ccc(-n3cccc3)cc2)cc1` (stereo not shown) [Compound (5), 2-{4-[4-(1-pyrryl)-phenylacetamido]-benzyl}-butyric acid ethyl ester], the LD50 in data set [2] was above 2000 mg/kg. In data set [3], the “Total cholesterol, % mg” value was found to be 205 % mg; the “Triglycerides, % mg” value stood at 410 % mg; the “Total cholesterol, % variation” value is -24%; the “Triglycerides, % variation” value is -21%. Further, in data set [4], the “Total cholesterol, % mg” value was 130 % mg; the “Triglycerides, % mg” value is 80 % mg; the “Total cholesterol, % variation” value is -38%; the “Triglycerides, % variation” value is given as -45%. For the same compound, the “hypocholesterolemizing and hypolipidemizing activity (in words)” value in data set [5] is “interesting ability to decrease the hematic levels of cholesterol and triglycerides; also recorded: particularly high hypocholesterolemizing and hypolipidemizing activity”.
In data set [2], `CCC(Cc1ccc(NC(=O)c2ccccc2C(=O)O)cc1)C(=O)O` (stereo not shown) [Compound (6), 2-(p-phthalylaminobenzyl)-butyric acid] had an LD50 above 2000 mg/kg. For the same compound, in data set [3], the “Total cholesterol, % mg” value was determined as 180 % mg; the “Triglycerides, % mg” value is listed as 380 % mg; the “Total cholesterol, % variation” value is reported as -32%; the “Triglycerides, % variation” value is reported as -28%. Also, in data set [4], the “Total cholesterol, % mg” value is recorded as 130 % mg; the “Triglycerides, % mg” value was found to be 64 % mg; the “Total cholesterol, % variation” value was -38%; the “Triglycerides, % variation” value is recorded as -56%. Also, in data set [5], the “hypocholesterolemizing and hypolipidemizing activity (in words)” value was “interesting ability to decrease the hematic levels of cholesterol and triglycerides; also recorded: particularly high hypocholesterolemizing and hypolipidemizing activity”.
Regarding `CC(C)OC(=O)C(C)(C)Oc1ccc(C(=O)c2ccc(Cl)cc2)cc1` [Procetofene], the “hypolipidemizing activity (in words)” value in data set [1] is “hypolipidemizing activity lower than that of Bezafibrate”.
For `CC(=O)c1ccccc1N1C(=O)c2ccccc2C1=O` [o-(N-phthalimido)acetophenone], the “inhibiting activity in vivo on hepatic enzymes” value in data set [7] is “inhibiting activity in vivo”. In addition, the “hypolipidemizing activity (in words)” value in data set [1] was “more active than Clofibrate in reducing the serum cholesterol percentage and the triglyceride level”. Further, in data set [8], the “cholesterol absorption at the intestinal level” value is “decrease the cholesterol absorption at the intestinal level” and the “excretion of cholesterol with the bile” value was “speed up the excretion of cholesterol with the bile”.
As to `CC(C)(Oc1ccc(CCNC(=O)c2ccc(Cl)cc2)cc1)C(=O)O` [Bezafibrate, reference compound], in data set [3], the “Total cholesterol, % mg” value stood at 210 % mg; the “Triglycerides, % mg” value was 415 % mg; the “Total cholesterol, % variation” value is -22%; the “Triglycerides, % variation” value is listed as -20%. In addition, the “hypolipidemizing activity (in words)” value in data set [1] was “ability to decrease the hematic levels of cholesterol and triglycerides”. Also, in data set [4], the “Total cholesterol, % mg” value came out at 139 % mg; the “Triglycerides, % mg” value is 100 % mg; the “Total cholesterol, % variation” value is listed as -33%; the “Triglycerides, % variation” value is given as -32%.
